Experimental data taken from the supplement of paper PMC11061612.

Assays:
Assay in all cases: Bliss excess, mean over the matrix (fraction); higher = more synergy
[1] = test system: A2058 (Melanoma)
Outline: (§1)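 Bliss excess equals the observed combination effect minus the expected value EA + EB − EA·EB, where EA and EB are the effects of each agent alone. Combination Emax is the second-highest inhibition within the matrix. Inhibition was scaled from CellTiter-Glo 2.0 luminescence, with 0 set by vehicle wells and 1 by blank wells, after 72 hours of two-drug dosing of cells plated in 1536-well plates.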

[2] = test system: FADU (Head and Neck Carcinoma)
Outline: as §1

[3] = test system: GP5d (Colorectal Carcinoma)
Outline: as §1

[4] = test system: IST-MES1 (Mesothelioma)
Outline: as §1

[5] = test system: KE-37 (T-Lymphoblastic Leukemia)
Outline: as §1

[6] = test system: LK-2 (Squamous Cell Lung Carcinoma)
Outline: as §1

[7] = test system: LN-229 (Glioblastoma)
Outline: as §1

[8] = test system: MFE-280 (Endometrial Carcinoma)
Outline: as §1

[9] = test system: MKN45 (Gastric Carcinoma)
Outline: as §1

[10] = test system: NCI-H2342 (Lung Adenocarcinoma)
Outline: as §1

[11] = test system: NCI-H446 (Small Cell Lung Carcinoma)
Outline: as §1

[12] = test system: OAW-42 (Ovarian Carcinoma)
Outline: as §1

[13] = test system: PANC-03-27 (Pancreatic Carcinoma)
Outline: as §1

[14] = test system: PC-3_[JPC-3] (Lung Adenocarcinoma)
Outline: as §1

[15] = test system: RERF-LC-Sq1 (Squamous Cell Lung Carcinoma)
Outline: as §1

[16] = test system: SF268 (Low Grade Glioma)
Outline: as §1

[17] = test system: SF539 (Glioblastoma)
Outline: as §1

[18] = test system: SHP-77 (Small Cell Lung Carcinoma)
Outline: as §1

[19] = test system: SK-PN-DW (Other Solid Carcinomas)
Outline: as §1

[20] = test system: WM793B (Melanoma)
Outline: as §1

Row | Structure (SMILES) | Bliss excess [1] | Bliss excess [2] | Bliss excess [3] | Bliss excess [4] | Bliss excess [5] | Bliss excess [6] | Bliss excess [7] | Bliss excess [8] | Bliss excess [9] | Bliss excess [10] | Bliss excess [11] | Bliss excess [12] | Bliss excess [13] | Bliss excess [14] | Bliss excess [15] | Bliss excess [16] | Bliss excess [17] | Bliss excess [18] | Bliss excess [19] | Bliss excess [20]
1 | CN(C)CCCOc1ccc(-c2ccc3ncc4c(c3c2)n(C2CCOCC2)c(=O)n4C)cn1 [AZD0156] + O=C(c1cc(Cc2n[nH]c(=O)c3ccccc23)ccc1F)N1CCN(C(=O)C2CC2)CC1 [Olaparib] (first compound max 3 µM, partner max 3 µM) | 0.151 | 0.0039 | 0.0682 | -0.0141 | 0.0951 | 0.154 | -0.0258 | 0.0591 | -0.0028 | -0.0504 | 0.0788 | 0.0145 | -0.0236 | -0.0349 | 0.0396 | -0.0347 | 0.133 | 0.0544 | 0.0158 | 0.0206
2 | C=CCn1c(=O)c2cnc(Nc3ccc(N4CCN(C)CC4)cc3)nc2n1-c1cccc(C(C)(C)O)n1 [AZD1775] + C1CN(CCC1(C(=O)N[C@@H](CCO)C2=CC=C(C=C2)Cl)N)C3=NC=NC4=C3C=CN4 [Capivasertib] (first compound max 3 µM, partner max 3 µM) | 0.0217 | 0.0615 | -0.0274 | -0.0056 | -0.0132 | -0.0913 | -0.062 | -0.0055 | -0.0736 | -0.0136 | 0.0213 | -0.0399 | -0.0573 | -0.0534 | -0.0483 | -0.009 | -0.0878 | -0.0114 | 0.0265 | -0.0157
3 | CN(CCO)CC[C@H](CSc1ccccc1)Nc1ccc(S(=O)(=O)NC(=O)c2ccc(N3CCC([C@@H](O)c4ccccc4-c4ccc(Cl)cc4)CC3)cc2)cc1S(=O)(=O)C(F)(F)F [AZD4320] + C1CN(CCC1(C(=O)N[C@@H](CCO)C2=CC=C(C=C2)Cl)N)C3=NC=NC4=C3C=CN4 [Capivasertib] (first compound max 1 µM, 7x7, partner max 3 µM) | -0.032 | -0.0268 | -0.0396 | -0.0371 | 0.0185 | -0.0077 | -0.0443 | 0.0092 | -0.0977 | -0.0259 | 0.0316 | -0.0274 | -0.0481 | -0.0961 | -0.0223 | -0.0502 | -0.0352 | 0.0185 | -0.0588 | -0.0384
4 | CN(CCO)CC[C@H](CSc1ccccc1)Nc1ccc(S(=O)(=O)NC(=O)c2ccc(N3CCC([C@@H](O)c4ccccc4-c4ccc(Cl)cc4)CC3)cc2)cc1S(=O)(=O)C(F)(F)F [AZD4320] + CCN(CCO)CCCOc1ccc2c(Nc3cc(CC(=O)Nc4cccc(F)c4)[nH]n3)ncnc2c1 [AZD2811] (first compound max 1 µM, 7x7, partner max 1 µM) | 0.0723 | 0.0014 | 0.0026 | -0.0265 | -0.0049 | 0.0358 | -0.0074 | 0.0821 | -0.0438 | -0.036 | -0.0505 | -0.0359 | 0.0197 | -0.0598 | 0.0012 | 0.0843 | 0.0862 | -0.0019 | 0.0024 | 0.0038
5 | CN(CCO)CC[C@H](CSc1ccccc1)Nc1ccc(S(=O)(=O)NC(=O)c2ccc(N3CCC([C@@H](O)c4ccccc4-c4ccc(Cl)cc4)CC3)cc2)cc1S(=O)(=O)C(F)(F)F [AZD4320] + CN(C)CCCOc1ccc(-c2ccc3ncc4c(c3c2)n(C2CCOCC2)c(=O)n4C)cn1 [AZD0156] (first compound max 1 µM, 7x7, partner max 1 µM) | -0.0134 | -0.01 | -0.0087 | -0.041 | -0.0045 | 0.0312 | -0.0218 | 0.0113 | -0.0612 | -0.0214 | -0.0002 | -0.0088 | -0.0459 | -0.0583 | -0.0601 | -0.0012 | -0.0163 | 0.0223 | -0.0302 | -0.0564
6 | CN(CCO)CC[C@H](CSc1ccccc1)Nc1ccc(S(=O)(=O)NC(=O)c2ccc(N3CCC([C@@H](O)c4ccccc4-c4ccc(Cl)cc4)CC3)cc2)cc1S(=O)(=O)C(F)(F)F [AZD4320] + C[C@@H]1COCCN1C2=NC(=NC(=C2)C3(CC3)[S@](=N)(=O)C)C4=C5C=CNC5=NC=C4 [AZD6738] (first compound max 1 µM, 7x7, partner max 10 µM) | -0.0088 | -0.0165 | -0.0515 | -0.0338 | -0.0133 | -0.0267 | 0.0358 | 0.0099 | -0.0471 | -0.0429 | 0.0178 | -0.0315 | -0.0392 | -0.0469 | -0.0082 | 0.023 | -0.0706 | -0.0032 | -0.0551 | -0.0406
